Reference: ChEMBL document CHEMBL1142611, “Neovibsanin F and its congeners, rearranged vibsane-type diterpenes from Viburnum suspensum” (J Nat Prod, 2006)
In brackets after ≈: the same amount, converted by molar mass.

How the values were obtained:
Artemia = assay: Toxicity in brine shrimp at 100 ug/mL; assay type: organism-based; conditions: in vivo
KB = assay: Cytotoxicity against human KB cells; assay type: functional, cell-based
[1] = Toxicity in brine shrimp; assay type: organism-based; conditions: artemia, in vivo; read-out: LD50 (the source's name)

Row | Compound | Activity (Artemia) | IC50 (KB) | LC50 [1]
1 | CC(=O)C[C@@H]1OC(=O)C2=C1[C@H](/C=C/OC(=O)C=C(C)C)[C@@]1(C)CC[C@H](C(C)(C)O)[C@@H]2C1 | Not Active | – | –
2 | CC(=O)C[C@@H]1OCC2=C1[C@H](/C=C/OC(=O)C=C(C)C)[C@@]1(C)CC[C@H](C(C)(C)O)[C@@H]2C1 | Not Active | – | –
3 | COc1cccc2c1C(=O)c1c(O)c3c(c(O)c1C2=O)C[C@@](O)(C(=O)CO)C[C@@H]3O[C@H]1C[C@H](N)[C@H](O)[C@H](C)O1 [DOXORUBICIN] | – | 0.007 µM | –
4 | CC(=O)C[C@@H]1OCC2=C1[C@H](/C=C/OC(=O)C=C(C)C)[C@@]1(C)CC[C@@H](C(C)(C)O)[C@@H]2C1 [NEOVIBSANIN F] | – | – | 46 µg/mL (≈ 110 µM)
5 | CC(=O)C[C@@H]1OCC2=C1[C@H](/C=C/OC(=O)C=C(C)C)[C@@](C)(CCC=C(C)C)C[C@H]2O [NEOVIBSANIN I] | – | 18 µM | –
6 | CC(C)=CCC[C@]1(C)/C=C/[C@@H](OC(=O)C=C(C)C)[C@](C)(O)/C=C/C(=O)/C(CO)=C\C1 [VIBSANIN B] | – | 3.5 µM | 17.5 µg/mL (≈ 42 µM)
